The results in this text go back to ChEMBL document CHEMBL4007504, “Docking, synthesis and antimalarial activity of novel 4-anilinoquinoline derivatives” (Bioorg Med Chem Lett, 2017).

One data set has as its system Plasmodium berghei. In words: Antimalarial activity against chloroquine-sensitive Plasmodium berghei infected in Swiss albino mouse assessed as chemosuppression at 200 mg/kg, po qd administered for 4 days by peter's test relative to control. The class given is functional. Conditions: 96 h.
The next data set relates to Mus musculus. In words: Toxicity in Swiss albino mouse at 2000 mg/kg, po. Conditions: in vivo. The data set is classed as organism-based.
In the next data set the test system is Plasmodium falciparum. Description: Antimalarial activity against chloroquine-resistant Plasmodium falciparum W2 infected in human erythrocytes assessed as parasite growth inhibition after 48 hrs by YOYO1 probe-based flow cytometric method. The data set is classed as functional, cell-based. Conditions: W2, 48 h.
The next data set addresses Ferriprotoporphyrin IX. In words: Binding affinity to haematin assessed as inhibition of NP40-mediated beta-haematin formation after 4 hrs by pyridine-ferrochrome method.

On to `Clc1ccc2c(Nc3ccc(Nc4nc(Cl)nc(NCc5ccccc5)n4)cc3)ccnc2c1`, for which, in the data set with Plasmodium berghei, the inhibition in vivo (as a rule, how much of the control response was suppressed) at 200 mg/kg was determined as 97%. For the same molecule, the Activity result in the data set with Mus musculus is “Non-Toxic”. In addition, the IC50 (usually the concentration that gives 50% inhibition) came to 123 nM in the data set on Plasmodium falciparum and 21800 nM at Ferriprotoporphyrin IX.
In the same order, the values of `COc1ccccc1Nc1nc(Cl)nc(Nc2ccc(Nc3ccnc4cc(Cl)ccc34)cc2)n1` are 94.8%, “Non-Toxic”, 145 nM and 21000 nM.
With `CCN(CC)CCCC(C)Nc1ccnc2cc(Cl)ccc12` (stereo not drawn) [CHLOROQUINE], the inhibition in vivo at 200 mg/kg in the data set with Plasmodium berghei came to 83%. In addition, the IC50 at Ferriprotoporphyrin IX came to 27200 nM.
On to `Clc1ccc2c(Nc3ccc(Nc4nc(Cl)nc(N(c5ccccc5)c5ccccc5)n4)cc3)ccnc2c1`, for which the inhibition in vivo at 200 mg/kg with Plasmodium berghei turned out to be 97.4%. For the same molecule, the Activity result in the data set on Mus musculus is listed as “Non-Toxic”. Besides, the half-inhibitory concentration (IC50) with Plasmodium falciparum amounted to 255 nM; at Ferriprotoporphyrin IX it was 24900 nM.
As to `Clc1ccc2c(Nc3ccc(Nc4nc(Cl)nc(N5CCCC5)n4)cc3)ccnc2c1`, in the data set with Plasmodium berghei, the inhibition in vivo at 200 mg/kg was 97%. Also, the Activity result with Mus musculus is given as “Non-Toxic”. Also, the IC50 in the data set with Plasmodium falciparum worked out at 119 nM; at Ferriprotoporphyrin IX, 28100 nM.
Turning to `CN(C)c1nc(Cl)nc(Nc2ccc(Nc3ccnc4cc(Cl)ccc34)cc2)n1`, in the data set with Plasmodium berghei, the inhibition in vivo at 200 mg/kg came to 95.2%. Also, the Activity entry in the data set on Mus musculus is recorded as “Non-Toxic”. Further, the IC50 was 380 nM in the data set on Plasmodium falciparum and 29700 nM at Ferriprotoporphyrin IX.
For `CN(c1ccccc1)c1nc(Cl)nc(Nc2ccc(Nc3ccnc4cc(Cl)ccc34)cc2)n1` the same measures were 91.1%, “Non-Toxic”, 269 nM and 23700 nM.
For `Clc1ccc2c(Nc3ccc(Nc4nc(Cl)nc(N5CCNCC5)n4)cc3)ccnc2c1` the same measures were 94.8%, “Non-Toxic”, 167 nM and 23700 nM.
In the same order, the values of `CC(C)N(c1nc(Cl)nc(Nc2ccc(Nc3ccnc4cc(Cl)ccc34)cc2)n1)C(C)C` are 95.5%, “Non-Toxic”, 902 nM and greater than 500000 nM.
On to `O=[N+]([O-])c1ccc(Nc2nc(Cl)nc(Nc3ccc(Nc4ccnc5cc(Cl)ccc45)cc3)n2)cc1`, for which the inhibition in vivo at 200 mg/kg in the data set on Plasmodium berghei turned out to be 97.4%. For the same molecule, the Activity result with Mus musculus is listed as “Non-Toxic”. Moreover, the IC50 was found to be 145 nM in the data set on Plasmodium falciparum and 23000 nM on Ferriprotoporphyrin IX.
With `Clc1ccc2c(Nc3ccc(Nc4nc(Cl)nc(N5CCOCC5)n4)cc3)ccnc2c1`, the inhibition in vivo at 200 mg/kg in the data set with Plasmodium berghei stood at 97%. For the same molecule, the Activity entry in the data set with Mus musculus is reported as “Non-Toxic”. Further, the IC50 was 138 nM in the data set with Plasmodium falciparum and 21100 nM on Ferriprotoporphyrin IX.
As for `C[C@@H]1CC[C@H]2[C@@H](C)C(=O)O[C@@H]3O[C@@]4(C)CC[C@@H]1[C@]32OO4` [ARTEMISININ], the IC50 with Plasmodium falciparum was found to be 15 nM.
For the molecule `Nc1ccc(Nc2ccnc3cc(Cl)ccc23)cc1`, in the data set on Plasmodium berghei, the inhibition in vivo at 200 mg/kg was determined as 85.9%. Besides, the Activity result in the data set on Mus musculus was “Non-Toxic”. Also, the figures for the IC50 in the data set on Plasmodium falciparum and at Ferriprotoporphyrin IX were 807 nM and 32500 nM, respectively.
`Clc1ccc2c(Nc3ccc(Nc4nc(Cl)nc(N5CCCCC5)n4)cc3)ccnc2c1`: the inhibition in vivo at 200 mg/kg in the data set with Plasmodium berghei is 94.1%. For the same molecule, the Activity result in the data set with Mus musculus is listed as “Non-Toxic”. Besides, the IC50 in the data set with Plasmodium falciparum is 118 nM; on Ferriprotoporphyrin IX, 20600 nM.
In the same order, the values of `CCN(CC)c1nc(Cl)nc(Nc2ccc(Nc3ccnc4cc(Cl)ccc34)cc2)n1` are 95.5%, “Non-Toxic”, 268 nM and 21600 nM.
In the same order, the values of `CCCN(CCC)c1nc(Cl)nc(Nc2ccc(Nc3ccnc4cc(Cl)ccc34)cc2)n1` are 91.5%, “Non-Toxic”, 8 nM and 18600 nM.
Regarding `CCN(c1ccccc1)c1nc(Cl)nc(Nc2ccc(Nc3ccnc4cc(Cl)ccc34)cc2)n1`, the inhibition in vivo at 200 mg/kg in the data set on Plasmodium berghei is 97%. In addition, the Activity result in the data set on Mus musculus was “Non-Toxic”. The IC50 in the data set with Plasmodium falciparum was 220 nM; at Ferriprotoporphyrin IX it was 29200 nM.
